Measured values published in article PMC3325286, “Structural and Functional Diversity of Acidic Scorpion Potassium Channel Toxins” (PLoS ONE, 2012).
Where two headings read alike, the source gives them in different places. Positions of bridges follow the written chain, without caps; N, C: chain ends. Residues, ends and D or L forms follow the SMILES beside them. No end group written: not given here.

How the values were obtained:
[1] = biological target: T1, KCNQ1 channel (Homo sapiens, UniProt P15382+P51787); assay: cell-based; conditions: for inhibition at 10 µM: HEK293, read-out: Inhibition of KCNQ1 channel current; for inhibition at 1 µM: HEK293, read-out: Inhibition of KCNQ1 channel current, ImKTx104 and mutants
[2] = biological target: T1, KCNQ1 channel
[3] = tested on: BKCa channel; assay: Patch-clamp inhibition of BKCa channel current in transfected HEK293 cells; type: cell-based; conditions: 1 µM concentration; n>3
[4] = tested on: TRPV1 channel; assay: Patch-clamp inhibition of TRPV1 channel current in transfected HEK293 cells; type: cell-based; conditions: 1 µM concentration; n>3
[5] = tested on: SKCa channel; assay: Patch-clamp inhibition of SKCa channel current in transfected HEK293 cells; type: cell-based; conditions: 1 µM concentration; n>3
[6] = tested on: Kv1.3 channel; assay: Patch-clamp inhibition of Kv1.3 channel current in transfected HEK293 cells; type: cell-based
[7] = tested on: Kv1.1 channel; assay: Patch-clamp inhibition of Kv1.1 channel current in transfected HEK293 cells; type: cell-based; conditions: 1 µM ImKTx104 (Fig. S2); n>3
[8] = tested on: Kv1.2 channel; assay: Patch-clamp inhibition of Kv1.2 channel current in transfected HEK293 cells; type: cell-based; conditions: 1 µM ImKTx104 (Fig. S2); n>3
[9] = tested on: Kv1.x channel; conditions: cited from earlier work

T1 sequence (P51787 whole entry, looked up): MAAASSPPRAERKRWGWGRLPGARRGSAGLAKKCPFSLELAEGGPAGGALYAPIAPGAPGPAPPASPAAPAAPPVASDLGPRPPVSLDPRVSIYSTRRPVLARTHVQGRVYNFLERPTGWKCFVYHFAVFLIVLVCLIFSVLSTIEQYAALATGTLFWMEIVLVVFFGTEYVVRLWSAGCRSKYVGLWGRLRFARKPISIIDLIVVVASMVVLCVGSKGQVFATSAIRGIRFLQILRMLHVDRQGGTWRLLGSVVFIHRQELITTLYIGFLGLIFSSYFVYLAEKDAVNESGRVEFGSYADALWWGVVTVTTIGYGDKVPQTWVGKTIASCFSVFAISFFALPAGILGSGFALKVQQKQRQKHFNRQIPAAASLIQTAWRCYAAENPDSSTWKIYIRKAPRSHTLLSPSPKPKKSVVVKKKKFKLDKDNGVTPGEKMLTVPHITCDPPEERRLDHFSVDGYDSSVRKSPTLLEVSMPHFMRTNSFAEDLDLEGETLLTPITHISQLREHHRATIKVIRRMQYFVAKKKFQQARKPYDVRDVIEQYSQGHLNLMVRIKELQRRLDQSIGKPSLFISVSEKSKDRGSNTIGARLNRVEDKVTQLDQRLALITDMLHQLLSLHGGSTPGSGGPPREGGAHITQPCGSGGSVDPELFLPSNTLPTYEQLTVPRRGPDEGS

Molecule | inhibition at 10 µM [1] [%] | Effect on KCNQ1 channel (in words) ([2]; 10 µM concentration) | Effect on Kv1.3 channel (in words) [6] | inhibition at 1 µM [1] [%] | also measured
CSCC[C@@H]1NC(=O)[C@@H]2CCCN2C(=O)[C@@H]2CSSC[C@@H]3NC(=O)[C@H](C(C)C)NC(=O)CNC(=O)[C@H](CC(=O)O)NC(=O)[C@H](CC(=O)O)NC(=O)[C@H](CSSC[C@H](NC(=O)CNC(=O)[C@@H](N)C(C)C)C(=O)N[C@@H](CCC(=O)O)C(=O)N[C@@H](CCC(=O)O)C(=O)N2)NC(=O)[C@H]([C@@H](C)O)NC(=O)[C@@H]2CCCN2C(=O)[C@H](CCCCN)NC(=O)[C@H](C)NC(=O)[C@H](CC(N)=O)NC(=O)[C@H](CCCCN)NC(=O)CNC(=O)[C@H](CCCCN)NC(=O)[C@H](CSSC[C@@H](C(=O)N[C@@H](CC(N)=O)C(=O)N[C@H](C(=O)O)C(C)C)NC(=O)[C@H](CC(N)=O)NC3=O)NC(=O)[C@H](Cc2c[nH]cn2)NC1=O [BmP02, reference compound] (H-VGCEECPMHCKGKNAKPTCDDGVCNCNV-OH; disulfide 3-19, 6-24, 10-26) | 23.3 | only weak inhibitors |  |  | 
CC[C@H](C)[C@@H]1NC(=O)[C@@H](NC(=O)[C@H](C)NC(=O)[C@H](CC(N)=O)NC(=O)CN)CSSC[C@@H](C(=O)N[C@@H](CC(=O)O)C(=O)N[C@@H](CCCCN)C(=O)O)NC(=O)[C@H](C)NC(=O)[C@H](CCCCN)NC(=O)[C@H](CC(=O)O)NC(=O)[C@@H]2CSSC[C@H](NC(=O)[C@H](C(C)C)NC(=O)[C@H](CCC(=O)O)NC1=O)C(=O)N[C@@H](CC(C)C)C(=O)N[C@@H](CCC(N)=O)C(=O)N[C@@H](Cc1c[nH]cn1)C(=O)N[C@@H]([C@@H](C)O)C(=O)NCC(=O)N[C@@H](CC(N)=O)C(=O)N1CCC[C@H]1C(=O)N[C@@H](C)C(=O)N[C@@H](CCC(=O)O)C(=O)N2 [HeTx203] (H-GNACIEVCLQHTGNPAECDKACDK-OH; disulfide 4-22, 8-18) | 17.8 | only weakly inhibited |  |  | 
CC[C@H](C)[C@@H]1NC(=O)[C@@H](NC(=O)[C@H](C)NC(=O)[C@H](CC(N)=O)NC(=O)CN)CSSC[C@@H](C(=O)N[C@@H](CC(=O)O)C(=O)N[C@@H](CCCCN)C(=O)O)NC(=O)[C@@H]2CCCN2C(=O)[C@H](CCCCN)NC(=O)[C@H](CC(=O)O)NC(=O)[C@@H]2CSSC[C@H](NC(=O)[C@H](C(C)C)NC(=O)[C@H](CCC(=O)O)NC1=O)C(=O)N[C@@H](CC(C)C)C(=O)N[C@@H](CCC(N)=O)C(=O)N[C@@H](Cc1c[nH]cn1)C(=O)N[C@@H]([C@@H](C)O)C(=O)NCC(=O)N[C@@H](CC(N)=O)C(=O)N1CCC[C@H]1C(=O)N[C@@H](C)C(=O)N[C@@H](CCC(=O)O)C(=O)N2 [HeTx204] (H-GNACIEVCLQHTGNPAECDKPCDK-OH; disulfide 4-22, 8-18) | 44.9 | effectively blocked | effectively blocked |  | Effect on BKCa channel (in words) [3]: negligible effects; Washout of toxin from KCNQ1 channel (in words) ([2]; 10 µM): could not be removed; Effect on TRPV1 channel (in words) [4]: negligible effects; Effect on SKCa channel (in words) [5]: negligible effects
CC[C@H](C)[C@@H]1NC(=O)[C@H]([C@@H](C)O)NC(=O)[C@H](C)NC(=O)[C@H](Cc2ccc(O)cc2)NC(=O)[C@@H]2CSSC[C@@H](C(=O)N[C@@H](CCSC)C(=O)O)NC(=O)[C@H](CCCCN)NC(=O)[C@@H]3CSSC[C@H](NC(=O)[C@H](CC(=O)O)NC(=O)[C@H](CCC(=O)O)NC(=O)[C@H](Cc4c[nH]cn4)NC(=O)[C@H]([C@@H](C)O)NC(=O)[C@H](C(C)C)NC(=O)[C@@H](NC(=O)[C@H](C)N)CSSC[C@H](NC(=O)[C@H]([C@@H](C)O)NC(=O)CNC1=O)C(=O)N[C@@H](C(C)C)C(=O)N[C@@H](CC(=O)O)C(=O)NCC(=O)N[C@@H](CCCCN)C(=O)N3)C(=O)N[C@@H]([C@@H](C)O)C(=O)N[C@@H](CC(C)C)C(=O)N[C@@H](CC(C)C)C(=O)N2 [ImKTX104-D14A] (H-ACVTHEDCTLLCYATIGTCVDGKCKCM-OH; disulfide 2-19, 8-24, 12-26) |  |  |  | 25.6 | 
CC[C@H](C)[C@@H]1NC(=O)[C@H]([C@@H](C)O)NC(=O)[C@H](CC(=O)O)NC(=O)[C@H](Cc2ccc(O)cc2)NC(=O)[C@@H]2CSSC[C@@H](C(=O)N[C@@H](CCSC)C(=O)O)NC(=O)[C@H](CCCCN)NC(=O)[C@@H]3CSSC[C@H](NC(=O)[C@H](CC(=O)O)NC(=O)[C@H](CCC(=O)O)NC(=O)[C@H](Cc4c[nH]cn4)NC(=O)[C@H]([C@@H](C)O)NC(=O)[C@H](C(C)C)NC(=O)[C@@H](NC(=O)[C@H](C)N)CSSC[C@H](NC(=O)[C@H]([C@@H](C)O)NC(=O)CNC1=O)C(=O)N[C@@H](C(C)C)C(=O)N[C@@H](CC(=O)O)C(=O)NCC(=O)N[C@@H](C)C(=O)N3)C(=O)N[C@@H]([C@@H](C)O)C(=O)N[C@@H](CC(C)C)C(=O)N[C@@H](CC(C)C)C(=O)N2 [ImKTX104-K23A] (H-ACVTHEDCTLLCYDTIGTCVDGACKCM-OH; disulfide 2-19, 8-24, 12-26) |  |  |  | 15.5 | 
CC[C@H](C)[C@@H]1NC(=O)[C@H]([C@@H](C)O)NC(=O)[C@H](CC(=O)O)NC(=O)[C@H](Cc2ccc(O)cc2)NC(=O)[C@@H]2CSSC[C@@H](C(=O)N[C@@H](CCSC)C(=O)O)NC(=O)[C@H](C)NC(=O)[C@@H]3CSSC[C@H](NC(=O)[C@H](CC(=O)O)NC(=O)[C@H](CCC(=O)O)NC(=O)[C@H](Cc4c[nH]cn4)NC(=O)[C@H]([C@@H](C)O)NC(=O)[C@H](C(C)C)NC(=O)[C@@H](NC(=O)[C@H](C)N)CSSC[C@H](NC(=O)[C@H]([C@@H](C)O)NC(=O)CNC1=O)C(=O)N[C@@H](C(C)C)C(=O)N[C@@H](CC(=O)O)C(=O)NCC(=O)N[C@@H](CCCCN)C(=O)N3)C(=O)N[C@@H]([C@@H](C)O)C(=O)N[C@@H](CC(C)C)C(=O)N[C@@H](CC(C)C)C(=O)N2 [ImKTX104-K25A] (H-ACVTHEDCTLLCYDTIGTCVDGKCACM-OH; disulfide 2-19, 8-24, 12-26) |  |  |  | 21.4 | 
CC[C@H](C)[C@@H]1NC(=O)[C@H]([C@@H](C)O)NC(=O)[C@H](CC(=O)O)NC(=O)[C@H](Cc2ccc(O)cc2)NC(=O)[C@@H]2CSSC[C@@H](C(=O)N[C@@H](CCSC)C(=O)O)NC(=O)[C@H](CCCCN)NC(=O)[C@@H]3CSSC[C@H](NC(=O)[C@H](CC(=O)O)NC(=O)[C@H](CCC(=O)O)NC(=O)[C@H](Cc4c[nH]cn4)NC(=O)[C@H]([C@@H](C)O)NC(=O)[C@H](C(C)C)NC(=O)[C@@H](NC(=O)[C@H](C)N)CSSC[C@H](NC(=O)[C@H]([C@@H](C)O)NC(=O)CNC1=O)C(=O)N[C@@H](C(C)C)C(=O)N[C@@H](CC(=O)O)C(=O)NCC(=O)N[C@@H](CCCCN)C(=O)N3)C(=O)N[C@@H]([C@@H](C)O)C(=O)N[C@@H](CC(C)C)C(=O)N[C@@H](CC(C)C)C(=O)N2 [ImKTx104] (H-ACVTHEDCTLLCYDTIGTCVDGKCKCM-OH; disulfide 2-19, 8-24, 12-26) | 41.7 | effectively blocked | minor effect | 27.5 | Effect on BKCa channel (in words) [3]: negligible effects; τoff (time constant of washing off process), KCNQ1 channel current ([2]; measured at 10 µM): 11.73 s; τon (time constant of binding process), KCNQ1 channel current ([2]; measured at 10 µM): 81.32 s; Effect on Kv1.1 channel (in words) [7]: no effect; Effect on Kv1.2 channel (in words) [8]: no effect; Effect on TRPV1 channel (in words) [4]: negligible effects; Effect on SKCa channel (in words) [5]: negligible effects
CC[C@H](C)[C@@H]1NC(=O)[C@H](C)NC(=O)[C@H](CCC(=O)O)NC(=O)[C@H](CO)NC(=O)[C@H]([C@@H](C)CC)NC(=O)[C@@H]2CCCN2C(=O)[C@@H](NC(=O)[C@H](CC(=O)O)NC(=O)CNC(=O)[C@@H](N)CCC(=O)O)CSSC[C@@H]2NC(=O)[C@H](C(C)C)NC(=O)[C@H](CCC(=O)O)NC(=O)[C@H](C(C)C)NC(=O)[C@H](CCCCN)NC(=O)[C@H](CCC(=O)O)NC(=O)[C@H](CCCCN)NC(=O)[C@@H]3CSSC[C@@H](C(=O)N[C@@H](CO)C(=O)NCC(=O)O)NC(=O)[C@H](CCCCN)NC(=O)[C@H](CSSC[C@H](NC(=O)[C@H](CCCCN)NC1=O)C(=O)N[C@@H](C(C)C)C(=O)N[C@@H](CCC(=O)O)C(=O)N[C@@H](CCCCN)C(=O)N3)NC(=O)[C@H](C(C)C)NC(=O)CNC(=O)[C@@H]1CCCN1C(=O)[C@H](CCC(=O)O)NC2=O [LmKTx2] (H-EGDCPISEAIKCVEKCKEKVEVCEPGVCKCSG-OH; disulfide 4-23, 12-28, 16-30) | 27.7 | only weakly inhibited | minor effect |  | 
CC[C@H](C)[C@@H]1NC(=O)[C@H](C(C)C)NC(=O)[C@@H]2CSSC[C@@H]3NC(=O)[C@H](CCCCN)NC(=O)[C@H](CCC(N)=O)NC(=O)[C@@H]4CCCN4C(=O)CNC(=O)[C@H](CC(=O)O)NC(=O)[C@H](CSSC[C@H](NC(=O)[C@H](CO)NC(=O)[C@H](CCC(=O)O)NC(=O)[C@H](CCCCN)NC(=O)[C@@H]4CCCN4C(=O)[C@H](CCC(=O)O)NC(=O)[C@H](CCC(=O)O)NC(=O)[C@@H](N)CC(=O)O)C(=O)N[C@@H](CO)C(=O)N[C@@H](CC(=O)O)C(=O)N[C@@H](CCC(=O)O)C(=O)N[C@@H](CCSC)C(=O)N2)NC(=O)[C@H](C(C)C)NC(=O)CNC(=O)[C@H]([C@@H](C)O)NC(=O)[C@H](CO)NC(=O)[C@H](Cc2ccc(O)cc2)NC(=O)[C@H](CCC(=O)O)NC(=O)[C@H](CCC(=O)O)NC(=O)CNC(=O)[C@H](CCCCN)NC(=O)[C@H](CSSC[C@@H](C(=O)N[C@@H](CO)C(=O)N[C@@H](CC(=O)O)C(=O)O)NC(=O)[C@H](CCCCN)NC3=O)NC(=O)[C@H](Cc2ccc(O)cc2)NC1=O [PbTx1, reference compound] (H-DEEPKESCSDEMCVIYCKGEEYSTGVCDGPQKCKCSD-OH; disulfide 8-27, 13-33, 17-35) | 21.4 |  |  |  | Block of Kv1.x channel (in words) [9]: low activity (micromolar range); Effect on KCNQ1 channel (in words) [2]: only weak inhibitors
EDKLKCTKTDDCAKYCSQFTDVHPACLGGYCECLRWEGGISS (disulfide 6-26, 12-31, 16-33) [StKTx23] | 4.21 | did not inhibit | effectively blocked |  | 
